# Results as given in patent publication US8623843B2, “Antimicrobial compound and preparation thereof” (Shenzhen University, priority 2009, dated 2014).
# Legend:
# Format in all cases: cell-based
# S. aureas (ATCC6538) = assay: minimum inhibitory / bactericidal concentration for S. aureas
# E. coli = assay: persistent antimicrobial activity of treated glass surface, colony (plate) counting method, E. coli
# Protocol: (§1) The resulting products from the above examples were used for treating a glass surface respectively, a superhydrophilic surface at a contact angle of less than 10° […]. was all obtained. In addition, they were tested for antimicrobial activity and persistent antimicrobial activity using the colony counting method, and the results are shown in table 1.
# S. aureas = assay: persistent antimicrobial activity of treated glass surface, colony (plate) counting method, S. aureas; set-up: concentration or dose not given beside the values
# Protocol: as §1
# E. coli (8099) = assay: minimum inhibitory / bactericidal concentration for E. coli
Molecule,minimum bactericidal concentration (MBC) (S. aureas (ATCC6538)) [mg/mL],minimum inhibitory concentration (MIC) (S. aureas (ATCC6538)) [mg/mL],persistent antimicrobial activity (plate counting method) (E. coli; wash times 0) [%],persistent antimicrobial activity (plate counting method) (E. coli; wash times 1) [%],persistent antimicrobial activity (plate counting method) (E. coli; wash times 5) [%],persistent antimicrobial activity (plate counting method) (E. coli; wash times 10) [%],persistent antimicrobial activity (plate counting method) (E. coli; wash times 30) [%],persistent antimicrobial activity (plate counting method) (S. aureas; wash times 0) [%],persistent antimicrobial activity (plate counting method) (S. aureas; wash times 1) [%],persistent antimicrobial activity (plate counting method) (S. aureas; wash times 5) [%],persistent antimicrobial activity (plate counting method) (S. aureas; wash times 10) [%],persistent antimicrobial activity (plate counting method) (S. aureas; wash times 30) [%],minimum bactericidal concentration (MBC) (E. coli (8099)) [mg/mL],minimum inhibitory concentration (MIC) (E. coli (8099)) [mg/mL]
"CC[N+](CC)(CCC[Si](OC)(OC)OC)CCCS(=O)(=O)[O-] [Embodiment 5, (CH3O)3Si(CH2)3^+N(CH2CH3)2(CH2)3SO3^−]",20,15,99.9,99.7,99.0,98.7,98.0,99.9,99.9,99.5,98.8,98.2,20,15
"CC[N+](CC)(CCC[Si](OC)(OC)OC)CCS(=O)(=O)[O-] [Embodiment 6, (CH3O)3Si(CH2)3^+N(CH2CH3)2(CH2)2SO3^−]",25,20,99.9,99.8,99.3,97.9,97.2,99.9,99.9,99.5,98.2,97.6,25,20
"CCC[N+](CCC)(CCC[Si](OC)(OC)OC)CCCS(=O)(=O)[O-] [Embodiment 8, (CH3O)3Si(CH2)3^+N(CH2CH2CH3)2(CH2)3SO3^−]",20,15,99.9,99.7,99.3,98.7,98.2,99.9,99.9,99.5,98.8,98.5,20,15
(CH3CH2O)2SiCH3(CH2CH3)3^+N(CH3)2(CH2)3SO3^− [Embodiment 2],30,25,99.9,99.9,99.3,98.9,98.5,99.9,99.9,99.9,99.6,99.0,30,25
"CO[Si](CCCNCCNCCCS(=O)(=O)O)(OC)OC [Embodiment 7, (CH3O)3Si(CH2)3NH(CH2)2^+NH2(CH2)3SO3^−]",30,25,99.9,99.5,99.1,98.6,98.0,99.9,99.8,99.6,99.1,98.2,30,25
"CCO[Si](C)(CCC[N+](C)(C)CCC(=O)[O-])OCC [Embodiment 4, (CH3CH2O)2SiCH3(CH2)3^+N(CH3)2(CH2)2CO2^−]",20,10,99.9,99.8,99.0,98.6,98.1,99.9,99.9,99.6,98.9,98.3,20,10
"CCO[Si](C)(CCC[N+](C)(C)CC(=O)[O-])OCC [Embodiment 3, (CH3CH2O)2SiCH3(CH2)3^+N(CH3)2CH2CO2^−]",25,20,99.9,99.8,99.2,97.9,97.2,99.9,99.9,99.5,98.2,97.6,25,20
"CCO[Si](CCC[N+](C)(C)CCCS(=O)(=O)[O-])(OCC)OCC [Embodiment 1, (CH3CH2O)3Si(CH2)3^+N(CH3)2(CH2)3SO3^−]",20,15,99.9,99.8,99.5,99.0,99.2,99.9,99.9,99.6,99.5,99.0,20,15
